Reference: patent US20060270737A1, “Menthol propyleneglycol-carbonate and analogs thereof as insect pest repellents” (priority 2003, published 2006)

Columns and labels:
Type in all cases: in vivo
[1] = tested on: milk termite, Coptotermes vastator; assay: Inhibition of termite infestation, weight loss of impregnated soft wood
Protocol: The milk termite, Coptotermes vastator, is a pest found in tropical and sub-tropical areas. To test the efficacy of racemic menthol propyleneglycol-carbonate, this chemical was dissolved in 95% ethanol at concentration of 10% w/w and pieces of pre-weighed soft wood were immersed in the solution for 24 hours. After impregnation, the wood was allowed to dry in air to remove the ethanol which has a lower flash point. The dry wood was reweighed to determine the total amount of racemic menthol propyleneglycol-carbonate absorbed into the wood. The weight of racemic menthol propyleneglycol-carbonate absorbed was 26 milligrams per gram of wood. Controls were prepared using wood impregnated with 95% ethanol alone.
The wood test samples were placed on top of a fallen jackfruit tree (Artocarpus heterophylla) heavily infested by termites under ambient, natural, outdoor conditions for a period of 2 months. At the end of the test period, the wood samples were cleaned of debris and termites, dried in the sun and weighed. The degree of wood preservation was determined by the amount of weight loss during the test period.

[2] = tested on: stable fly or dog fly (Stomoxys calcitrans); assay: Stable flies landing on sprayed meat bait
Protocol: To test the effectiveness of racemic menthol propylene glycol carbonate, a 50% solution was prepared in 95% ethanol and sprayed using a standard spray bottle. Stable flies were collected by placing a screened cage containing (Peaceful Valley Farm Supply, Grass Valley, Calif.) bait beside a horse stable one day prior to the test. Approximately 200 stable flies were collected from each cage. The test bait comprising pieces of beef was placed in an aluminum pan at the bottom of the collecting cage. The test was conducted using meat sprayed with 50% racemic menthol propyleneglycol-carbonate solution, with a control composed of meat sprayed with ethanol alone. The test was conducted in duplicate. The number of stable flies landing and feeding on the meat was counted periodically.

mosquitoes = assay: Standard mosquito chamber test of halloysite-entrapped and free active in aloe vera cream; conditions: 20% w/w in aloe vera cream, forearm, 3 human volunteers; in min
Protocol: This study was conducted to evaluate the suitability of encapsulation or entrapment as a means of reducing the amount of racemic menthol propyleneglycol-carbonate required to produce a repellent effect and to provide a means of protecting the active material from degradation by other excipients in the formulation or from high temperatures associated with manufacturing, as in the case of impregnation of textile materials. The halloysite clay represents an example of many other suitable encapsulation materials available in the industry and is not intended as a limitation of the scope of this invention.
Halloysite clay is a naturally derived, nontoxic, biodegradable material typically used in the manufacture of porcelain, bone china and fine china. U.S. Pat. No. 5,651,976 to Price and Gaber describes a new method of controlled release using microtubules made from halloysite clay. […] The halloysite entrapped racemic menthol propyleneglycol-carbonate used in this study was supplied as a gift from Federal Technology Group (Bozeman, Mont.), with a total entrapped active material determined at 17% of the total weight. […] Protection time was measured as the time at which the human subject experienced the first mosquito bite. […]

fire ants (s. invicta) = assay: Fire ant bait protection test; conditions: 50% (v/v) in ethanol sprayed on peanut butter bait, 4 replicates, terminated after 5 hours
Protocol: In this study, the repellent effect of racemic menthol propyleneglycol-carbonate was examined by preparing a solution of this chemical in ethanol at concentration of 50% (v/v). The solution was sprayed with a pump spray dispenser ([…] & Associates, Duarte, Calif.) to a bait composed of sugary food (in this case, peanut butter). The control was composed of ethanol alone. This study was conducted in Fort Pierce, Fla. The protection time was measured as the time when the first ant started consuming the bait. […] The experiment was terminated after 5 hours of observation. Each study group was composed of 4 replicates. In the control which was sprayed with ethanol alone, the fire ants (s. invicta) were seen on the bait within 3 minutes after the spray was applied.

[3] = tested on: red ant (pharaoh ant, Monomorium pharaonis); assay: Ant repellent test, impregnated filter paper barrier around table leg; conditions: mean ± SEM of 5 tests
Protocol: The red ant (pharaoh ant, Monomorium pharaonis) was selected for this ant repellent test since it has a worldwide distribution and is known to be a household pest. Red ants are attracted to the smell of food. The attractant in this experiment was a piece of chocolate, which was placed on a tabletop 5 hours before the test. Within 2 hours after being released on the ground around the table, the red ants established a route from the ground up the table legs. At the 5th hour, a filter paper impregnated with racemic menthol propyleneglycol-carbonate at two concentrations was placed around the middle portion of the table leg. The test compound was dissolved in ethanol and impregnated into a pre-weighed, 2 inch by 7 inch piece of filter paper. After complete evaporation of ethanol, the filter paper was weighed and the final weight of the test compound was determined per cm^2 of the filter paper. The control employed was the same filter paper soaked with ethanol only. The time for the first ant to cross the filter paper barrier was determined.

[4] = tested on: Adult mosquitoes (Culex quinquefasciatus); assay: Mosquito chamber test, protection time until first bite on lotion-coated arms of human volunteers; conditions: for Protection Time: 5 wt % in lotion base, elbow to fingertips of human volunteers, time to first bite, mean ± SEM, 4 volunteers
Protocol: Adult mosquitoes (Culex quinquefasciatus) were kept inside a screened chamber measuring 2 ft×2 ft×2 ft at a density of 200 mosquitoes per chamber. The mosquitoes are aged 3 to 10 days after emergence from larvae and were starved for 24 hours prior to each test. Each of the test compounds (supplied as a gift from Symrise GmbH & Co Kg, Holzminden, Germany) was added to a commercial lotion base (Cresto Laboratories, […], Philippines) and thoroughly mixed into the lotion using an electronic mixer. The resulting formulation was applied from the elbow to the tip of the fingers of human volunteers. The coated arms of the volunteers were then inserted, in turn, inside the chamber up to the elbow. The protection time was determined for each formulation as the length of time until a mosquito had taken its first bite, after which the test was terminated. The data in Table 1 show the protection time determined in this manner for the compounds tested.

mosquito biting activity = assay: Mosquito chamber protection time of combinations with DEET and citronella product (Natrapel); conditions: both at 10% w/w in hydrophilic ointment base, arms of 3 human volunteers
Protocol: To test the effectiveness of menthol propyleneglycol-carbonate(menthol propyleneglycol-carbonate) in enhancing the effect of the known insect repellent DEET against mosquito biting activity, this study was undertaken by combining racemic menthol propyleneglycol-carbonate with DEET (purchased from Sigma-Aldrich). The two chemicals were added at 10% w/w in an Hydrophilic ointment base (E. Fougera & Co., Melville, N.Y.) and applied on the exposed arms of human volunteers. The treated arms were inserted inside a mosquito chamber and the protection time was determined. […] The recorded data represents the mean and standard error of 3 human volunteers.
To test the effectiveness of menthol propyleneglycol-carbonate in enhancing the effect of another known mosquito repellent product, an experiment was undertaken in Which menthol propyleneglycol-carbonate was added at a concentration of 10% w/w to a citronella-based product (Natrapel) manufactured by Tender Corporation (Littleton, N.H.).

mosquito = assay: Outdoor mosquito tests, protection time on exposed arms of human volunteers; conditions: outdoors from 3:00 PM, 3 human volunteers per group, test chemical 10% w/w in ointment base, ± SEM
Protocol: To validate the efficacy of menthol propyleneglycol-carbonate under ambient conditions in nature, this chemical was mixed in an ointment base at 10% w/w and applied to the exposed arms of human volunteers who remained outdoors during the peak period of mosquito biting, beginning at 3:00 PM. The protection time was recorded and compared with that obtained from human volunteers using a commercially available insect repellent (OFF! Skintastic; 7% DEET) manufactured by SC Johnson & Sons, Inc. (Racine, Wis.). Control ointment consisted of Fougera ointment without any active ingredient. The protection time was determined for 3 human volunteers for each test group.

In the case of CC(O)COC(=O)OC1CC(C)CCC1C(C)C (racemic) [racemic menthol propyleneglycol-carbonate], the “termite consumption of the wood” value ([1]; impregnated wood, 2 months) is reported as “completely prevented from consuming the wood”, the “Percent of weight loss” value ([1]; soft wood impregnated from 10% w/w ethanol solution (26 mg per gram of wood), 2 months outdoors on termite-infested tree) is reported as 0.8 ± 0.4% and the “time by which the spray lost its efficacy” value ([2]; from the initial single application of 50% spray) is reported as at most 9 h. The “time the spray remained very effective” value ([2]; single application of 50% spray on meat) was “at least 5 hours”, the “PROTECTION TIME (Mean ± SEM)” value (mosquitoes) was 93 ± 6 and the “Protection Time” value (fire ants (s. invicta)) was “at least 5 hours”. For the same molecule, the “Protection Time” value (fire ants (s. invicta); listed as Racemic menthol propyleneglycol-carbonate) was over 5 h, the “Time to cross barrier” value ([3]; 15 mg/cm^2 on filter paper) was 63 ± 18 min and the “Time to cross barrier” value ([3]; 30 mg/cm^2 on filter paper) was 760 ± 76 min. The “Protection Time” value [4] was 283 ± 17 min, the “effectiveness in preventing mosquito bites relative to menthol or isopulegol” value ([4]; from Table I protection times, 5 wt % in lotion) was “almost nine times more effective” and the “inhibitory effect on mosquito bite (FIG. 1)” value ([4]; lotion containing various concentrations) was “dose dependent manner”. The “protection time / repellent effect of combination with DEET versus either compound alone (FIG. 3)” value (mosquito biting activity) was “greater protection time” and the “Protection Time” value (mosquito) was 227 ± 19 min.

C=C(C)C1CCC(C)CC1O (single isomer, unassigned; (-)) [(−)-isopulegol, 5-methyl-2-(1-methylethenyl) cyclohexanol, reference compound] was tested, and the “Protection Time” value [4] was 56 ± 7 min.

With CC1CCC(C(C)C)C(O)C1 (stereo not shown) [1-menthol, 1-5-methyl-2-isopropyl cyclohexanol, reference compound] the “Protection Time” value [4] was 30 ± 9 min.

In the case of CC1CCC(C(C)C)C(OCC(O)CO)C1 (stereo not shown) [menthoxy-propane-1,2-diol], the “Protection Time” value [4] is reported as 68 ± 17 min.

In the case of CC1CCC(C(C)C)C(OC(=O)OCCCCCCCCCO)C1 (stereo not shown) [menthyl-9-hydroxynonyl-carbonate], the “Protection Time” value [4] is reported as 79 ± 14 min.

For isopulegol propyleneglycol-carbonate, the “Protection Time” value [4] was 152 ± 36 min.
